US11578110B2, “Compounds for inducing tissue formation and uses thereof” (HISTIDE AG, priority 2015, dated 2023)
No end group written: not given here.

System: hMSCs
Experiment: STRO-1 stemness marker expression in hMSCs (immunostaining, ImageJ quantification)
Type: cell-based, Human
Description: The cells were first fixed for 20 min with 4% paraformaldehyde/PBS at 4° C. After fixation, the cells were permeabilized in PBS containing 1% Triton X-100 for 15 min. Runx2, Osterix, Stro-1, Vinculin, Phalloidin, Osteopontin, Sox2, Sox9 antibodies were visualized by treating the cells with 1% (v/v) specific monoclonal antibodies for 1 hour at 37° C. Then the samples were incubated with Alexa fluor® 568 or 647 (F(ab′)2 fragment of IgG(H+L)) during 30 min at room temperature. The cell nuclei were counterstained in 20 ng/mL DAPI for 10 min at room temperature.
For this type of quantification the freeware image analysis ImageJ® software was used. The raw image was first converted to an 8-bit file, and then the unsharp mask feature was used (settings 1:0.2) to remove the image background (rolling ball radius 10). After smoothing, the resulting image, which appears similar to the original photomicrograph but with minimal background, was then converted to a binary image by setting a threshold. Threshold values were determined empirically by selecting a setting, which gave the most accurate binary image for a subset of randomly selected photomicrographs. The cell area was determined by manual delineation on raw fluorescent images. Total contact area and mean contact area per cell were calculated by “analyse particles” in ImageJ®. A minimum of 30 cells per condition were analyzed. Stro-1, CD-34+, and CD-105 expressions were determined using this procedure.
hMSCs were cultured on conventional cell culture plastic plates with or without the presence in the cell culture media of different GFR-binding compounds as defined hereins (SEQ ID NO: 50 to 104) in solution. […] This was probed by Stro-1 immunostaining after cell fixation as described in the Methods section. The quantification of Stro-1 positive contact numbers and areas was performed as described in the Methods section. A minimum of 30 cells per condition were analyzed.
RMSD values are always calculated for a GFR-binding peptide sequence exempt from any bioactive-carrier-affinity-containing group as defined herein (e.g. cysteine, WWFWG, GTPGP, etc. . . . ). When needed i.e. when attachment to a bioactive carrier is contemplated, the bioactive-carrier-affinity-containing group is then present in the GFR-binding compound when it is biologically tested. Using the method detailed in the description, the RMSD of 57 previously reported peptide sequences have been determined (Table 6) and correlated with the expression of STRO-1 after grafted on a PET surface via a procedure as already described above. […] One should note that it is commonly admitted that the expression of STRO-1 in a cell is indicative of a cell that is in a substantially non-differentiated state and the decrease of its expression of at least about 20% is indicative of a cell that has started a processes of differentiation but which may not result in the differentiation of the cell. A decrease of more than 50% would be indicative of the presence of a significant shift towards a differentiated state. A decrease of more than 70% would be indicative of the presence of a very important shift towards a differentiated state. A sustained decrease (e.g. for at least 96 h) of more than 50% or 70% would be indicative of the presence of an even more important shift towards a differentiated state.
Likewise, using the method detailed in the description, the RMSD of 87 GFR-binding peptide sequence representatives of the invention have been determined (Table 7) and correlated with the expression of STRO-1 after grafted on a PET surface via a procedure as already described above. SEQ ID NO: 1 to 49 were tested in combination with a bioactive carrier as defined above in the Examples Section (i.e. titanium, ceramics, PEEK, hydrogel, etc. . . . ), whereas SEQ ID NO: 1143 to 1180 were tested in solution.

[1] = SEQ ID NO: 1 to 49 tested in combination with a bioactive carrier (titanium, ceramics, PEEK, hydrogel, etc.)
[2] = SEQ ID NO: 1143 to 1180 tested in solution

Sequence	STRO-1 expression [1] [%]	STRO-1 expression [2] [%]	STRO-1 expression (grafted on a PET surface) [%]
AAPASSSVPTRLSAISMLYL [SEQ ID NO: 2]	18	–	–
AASKASSSRVELRSVKIAKV (GFR-binding peptide) [SEQ ID NO: 1152]	–	33	–
AASKASSSRVKMSPINVLYF (GFR-binding peptide) [SEQ ID NO: 1167]	–	19	–
AASKASSTPTDLNAISTLYF (GFR-binding peptide) [SEQ ID NO: 1158]	–	20	–
AASKASSVPEKMRPVQTRKI (GFR-binding peptide) [SEQ ID NO: 1179]	–	32	–
AASKASSVPQEEEPLPMVYY (GFR-binding peptide) [SEQ ID NO: 1149]	–	23	–
AASKASSVPQRLRSVKVAKV (GFR-binding peptide) [SEQ ID NO: 1177]	–	31	–
AETLHTLGLSAPVIESAISDAI (Previously reported sequence) [SEQ ID NO: 1136, reference compound]	–	–	93
ANINKDRDNVPAATSSLSKAYNP (Previously reported sequence) [SEQ ID NO: 1119, reference compound]	–	–	92
APTKLNAISVLYFDDSSNVILKKYRNMIVKS (Previously reported sequence) [SEQ ID NO: 1126, reference compound]	–	–	84
APTQLSAISVL (Previously reported sequence) [SEQ ID NO: 1127, reference compound]	–	–	93
ASAAPSSVPAALSPISILYI [SEQ ID NO: 44]	15	–	–
ASASPSSTQVDLRPVQVRKI [SEQ ID NO: 40]	36	–	–
ASASPSSVSQDLSAISMLYL [SEQ ID NO: 15]	13	–	–
AVPKASSAPTKLSAISMLYL [SEQ ID NO: 19]	19	–	–
CCAPTELSAISVLYFDDSSNVILKKYRNMVVRACGCR (Previously reported sequence) [SEQ ID NO: 1139, reference compound]	–	–	81
CCAPTQLSAISVLYFDDSSNVILKKYRNMVVRACGCR (Previously reported sequence) [SEQ ID NO: 1140, reference compound]	–	–	82
CIPKPSSAPTELSAISMLYL (Previously reported sequence) [SEQ ID NO: 1134, reference compound]	–	–	83
CKIPKPSSAPTELSAISMLYL (Previously reported sequence) [SEQ ID NO: 1135, reference compound]	–	–	78

Sequence	STRO-1 expression [1] [%]	STRO-1 expression [2] [%]	STRO-1 expression (grafted on a PET surface) [%]
CPKPSSAPTELSAISMLL (Previously reported sequence) [SEQ ID NO: 1130, reference compound]	–	–	79
CVTKPLSSLLFPNWNTTTTPTPP (Previously reported sequence) [SEQ ID NO: 1102, reference compound]	–	–	92
DKPEESSSTPTHAQCICSSLSEAIVSSVLSTRLVLSQISLTRAKRAFE (Previously reported sequence) [SEQ ID NO: 1121, reference compound]	–	–	87
DPLPIIYYVGRNVRVEQLSNMVVRACKCS (Previously reported sequence) [SEQ ID NO: 1089, reference compound]	–	–	97
ENVNLKKYRNMIVKSCGCH (Previously reported sequence) [SEQ ID NO: 1090, reference compound]	–	–	97
FDSRVLKSAISFKENIIF (Previously reported sequence) [SEQ ID NO: 1128, reference compound]	–	–	89
GGGKASSVPTKLSAISMLYL [SEQ ID NO: 21]	30	–	–
GIPEPSSAPTELSATSILYY (GFR-binding peptide) [SEQ ID NO: 1146]	–	20	–
GIPEPSSAPTRLEPISMLYL (GFR-binding peptide) [SEQ ID NO: 1164]	–	16	–
GIPEPSSAPVDLKPLSTLYV (GFR-binding peptide) [SEQ ID NO: 1148]	–	11	–
GIPEPSSAPVDMRPVQIRKI (GFR-binding peptide) [SEQ ID NO: 1180]	–	30	–
GIPEPSSAPVEEEPLTTLYY (GFR-binding peptide) [SEQ ID NO: 1174]	–	21	–
GIPEPSSAPVGQEPLPMVYY (GFR-binding peptide) [SEQ ID NO: 1172]	–	28	–
GIPEPSSVPEKMSATSVLYY [SEQ ID NO: 7]	22	–	–
GIPEPSSVSQEESSLSTLFF (GFR-binding peptide) [SEQ ID NO: 1156]	–	19	–
GIPEPSSVSQELSATSMLYY (GFR-binding peptide) [SEQ ID NO: 1160]	–	22	–
GSAGPSSVPTKMSAISMLYL [SEQ ID NO: 1]	21	–	–
GSAGPSSVPTKMSPISVLYK [SEQ ID NO: 8]	31	–	–
GTPGPAAPASSSVPARLSAISMLYL (not fully specified) [SEQ ID NO: 35]	19	–	–

Sequence	STRO-1 expression [1] [%]	STRO-1 expression [2] [%]	STRO-1 expression (grafted on a PET surface) [%]
GTPGPASSVPTKLSAISMLYL (GTPGPAXXVPTKLSAISMLYL; GFR-binding peptide; MOD_RES (7)..(8): Xaa is C or S) [SEQ ID NO: 26]	23	–	–
GTPGPGSAGPSSTPTKMSAISMLYL (GTPGPGSAGPXXTPTKMSAISMLYL; GFR-binding peptide; MOD_RES (11)..(12): Xaa is C or S) [SEQ ID NO: 34]	26	–	–
GTPGPNDEGLESAPTGQNAISVLYF (GTPGPNDEGLEXAPTGQNAISVLYF; GFR-binding peptide; MOD_RES (12)..(12): Xaa is C or S) [SEQ ID NO: 31]	32	–	–
GTPGPPSSVPTKLSPISVLYK (GTPGPPXXVPTKLSPISVLYK; GFR-binding peptide; MOD_RES (7)..(8): Xaa is C or S) [SEQ ID NO: 30]	26	–	–
GTPGPPTSVPTKLSPISVLYK (GFR-binding peptide) [SEQ ID NO: 29]	27	–	–
GTPGPVPQELEPLTILYY (GFR-binding peptide) [SEQ ID NO: 24]	16	–	–
GTPGPVPTEESAISMLYL (GFR-binding peptide) [SEQ ID NO: 28]	22	–	–
GTPGPVPTELSPISVLYK (GFR-binding peptide) [SEQ ID NO: 25]	17	–	–
GTPGPVPTGQSAISMLYL (GFR-binding peptide) [SEQ ID NO: 27]	24	–	–
HIRSTTSSYVSLKSNITNRTIQTPTYSYT (Previously reported sequence) [SEQ ID NO: 1092, reference compound]	–	–	98
HVPKPSSAPTKLSAISMLYL [SEQ ID NO: 12]	28	–	–
HVPKPSSVPTKLSPISVLYK [SEQ ID NO: 16]	23	–	–
HVTKPTSVPEKLSSLSILFF [SEQ ID NO: 9]	29	–	–
IKSPARHSAPTHQEPLP (Previously reported sequence) [SEQ ID NO: 1097, reference compound]	–	–	98
KGSEYEKLVVSGITQVYQSSLSWHGCKSCCEVQVXNLXILIRLYDVHYYN (not fully specified; X: residue not identified in the source; ends and bridges not checked) [SEQ ID NO: 1122, reference compound]	–	–	88
KIPKASSSRVRLSSLSTLFF (GFR-binding peptide) [SEQ ID NO: 1157]	–	20	–
KIPKASSTPTRLSPISMLFI (GFR-binding peptide) [SEQ ID NO: 1163]	–	28	–
KIPKASSTQVGQSATSILYY (GFR-binding peptide) [SEQ ID NO: 1161]	–	27	–
